According to patent US5824647A, “Chemotactic wound healing peptides” (priority 1995, dated 1998):
“Also recorded” adds a separate entry of the source.

Key:
[1] = test system: infant foreskin fibroblasts; assay: Fibroblast chemotaxis in modified Boyden chambers (incl. checkerboard and deactivation studies); type: cell-based, human; conditions: for fibroblast chemotaxis / migration (in words): peptide in lower compartment of modified Boyden chamber; for chemotactic response of fibroblasts to peptide with fibronectin in upper chamber (in words): unrelated chemoattractant fibronectin in the upper chamber; for Mean Fibroblasts per 20 OIF + SEM: Experiment 1, lower compartment: TGF-β1 50 pg/ml, peptide 368-374 1.4 × 10^-5 M, peptide 364-378 6.7 × 10^-7 M, fibronectin 20 μg/ml
Protocol: Target cells used in in vitro chemotaxis assays were infant foreskin fibroblasts obtained by establishing monolayer cultures from explants of tissue. Cells were maintained in Eagle's minimum essential medium (MEM) supplemented with non-essential amino acids, antibiotics, 50 ug/ml ascorbic acid, and 9% fetal calf serum (FCS). Cells were passaged by trypsinization every 3-5 days.
Infant foreskin fibroblasts were harvested from monolayer culture by gentle trypsinization, washed twice in serum-free Eagles's MEM and adjusted to a final concentration of 250,000 cells/ml. The cell suspension (0.4 ml) was added to the upper compartments of blind well modified Boyden chemotaxis chambers. The peptides of the invention being assayed for chemotactic activity were solubilized in glycylglycine (0.015M) buffered NaCl (0.14M), pH 7.2, hereinafter referred to as GGBS, and diluted 50% with serum-free MEM. Test substances were added to the lower compartment of the chemotaxis chambers. Gelatin-treated polycarbonate filters (8 micron pore size) were interposed between the lowest compartment and the upper cell compartment. Loaded chambers were incubated at 37° C. in a humidified atmosphere containing 5% CO2 for 150 minutes. After incubation, the chambers were disassembled, the filters removed, stained with hematoxylin, and mounted on glass cover slips. Fibroblast chemotaxis was quantitated by counting the number of fibroblasts in 20 oil immersion fields (OIF) that migrated and adhered to the lower surface of each filter. Samples were tested in quadruplicate and results are expressed as mean number of fibroblasts per 20 OIF±standard error of the mean (SEM). Chemotaxis neutralization studies were performed by adding TGF-β1 or fibronectin to the upper cell compartment and testing for effects on fibroblast migration to the TGF-β peptides.
Zigmond-Hirsch checkerboard analysis (Zigmond & Hirsch, J. Exptl. Med. 137:387, 1972) was performed to determine whether the 7-mer peptide 368-374 (Val Tyr Tyr Val Gly Arg Lys) induced chemotaxis of fibroblasts, monocytes and neutrophils.
Deactivation studies were utilized to determine whether the peptides of the invention containing the 7-mer peptide amino acid sequence induced chemotaxis via cellular receptors and mechanisms utilized by intact TGF-β.

fibroblasts [2] = assay: Hyaluronate production by fibroblasts; type: cell-based; design: key to FIBROBLAST EFFECTS Hyaluronate: NE = No Effect
fibroblasts [3] = assay: HLA-DR, fibroblast effects; type: cell-based; design: key: NE = No Effect; conditions: Table II summary
[4] = test system: human peripheral blood monocytes; assay: Monocyte chemotaxis in modified Boyden chambers; type: cell-based; conditions: for Mean Monocytes per 20 OIF + SEM: Experiment 2, peptide in lower compartment; for monocyte chemotaxis / migration (in words): peptide in lower compartment of modified Boyden chamber
Description: (§1) Human peripheral blood neutrophils and monocytes, isolated from whole blood using standard techniques may also be used in the chemotaxis assays, in a manner similar to infant foreskin fibroblasts, to measure the chemotactic activity of the peptides towards inflammatory cells. Such cells may also be maintained in supplemented MEM as above, to which 5-10% FCS may be added. When using neutrophils and monocytes, instead of fibroblasts, the polycarbonate filters used in the modified Boyden chambers had pore sizes of 2 and 3 microns, respectively. As above, all assays were carried out in quadruplicate.
The following 7-mer peptides (peptides 368-374, corresponding to amino acids 368-374 of human TGF-β1): VYYVGRK (SEQ ID NO. 1), LYYIGKT (SEQ ID NO. 2), LYYVGRT (SEQ ID NO. 3), IYYVGRN (SEQ ID NO. 4) and IYYVGRT (SEQ ID NO. 5) were synthesized by the Merrifield technique, purified by HPLC, and tested at different concentrations in the same assay for their ability to stimulate chemotaxis of human peripheral blood monocytes in vitro modified Boyden chambers.

[5] = test system: Human peripheral blood neutrophils; assay: Neutrophil chemotaxis in modified Boyden chambers; type: cell-based; conditions: peptide in lower compartment of modified Boyden chamber
Description: as §1

T-Cell = assay: T-cell proliferation; type: cell-based; design: key: NE = No Effect; conditions: Table II summary
[6] = Media added to upper compartment
[7] = TGF-β1 (50 pg/ml) added to upper compartment

Substance | fibroblast chemotaxis / migration (in words) [1] | chemotactic response of fibroblasts to peptide with fibronectin in upper chamber (in words) [1] | FIBROBLAST EFFECTS HLA-DR (fibroblasts [3]) | Mean Fibroblasts per 20 OIF + SEM [1, 6] [Fibroblasts per 20 OIF] | Mean Fibroblasts per 20 OIF + SEM [1, 7] [Fibroblasts per 20 OIF] | monocyte chemotaxis / migration (in words) [4] | neutrophil chemotaxis / migration (in words) [5] | T-Cell Proliferation (T-Cell) | also measured
YSKVLALYNQHNPGASAAPC (YSKVLALYNQHNPGASAAPC) [Peptide 337-356] | has the ability to induce fibroblast chemotaxis | No such inhibition was seen | NE | – | – | – | – | – | FIBROBLAST EFFECTS Hyaluronate (fibroblasts [2]; Table II summary): NE
VYYVGRK [Peptide 368-374, 7-mer corresponding to amino acids 368-374 of TGF-β1] | does stimulate fibroblast chemotaxis and synthesis of collagen and hyaluronic acid; also recorded: induced migration of fibroblasts, monocytes and neutrophils in a dose dependent fashion; also recorded: induced primarily chemotaxis of fibroblasts | No such inhibition was seen | NE | 75 ± 2 | 23 ± 1 | induced migration of fibroblasts, monocytes and neutrophils in a dose dependent fashion | induced migration of fibroblasts, monocytes and neutrophils in a dose dependent fashion | NE | Fibroblasts per 20 OIF (mean ± SEM) ([1]; checkerboard: upper compartment 0, lower compartment 1.4 × 10^-6 M): 38 ± 2 Fibroblasts per 20 OIF; Fibroblasts per 20 OIF (mean ± SEM) ([1]; checkerboard: upper compartment 0, lower compartment 7.0 × 10^-6 M): 58 ± 5 Fibroblasts per 20 OIF; Fibroblasts per 20 OIF (mean ± SEM) ([1]; checkerboard: upper compartment 0, lower compartment 7.0 × 10^-7 M): 20 ± 3 Fibroblasts per 20 OIF; Fibroblasts per 20 OIF (mean ± SEM) ([1]; checkerboard: upper compartment 1.4 × 10^-6 M, lower compartment 0): 9 ± 1 Fibroblasts per 20 OIF; Fibroblasts per 20 OIF (mean ± SEM) ([1]; checkerboard: upper compartment 1.4 × 10^-6 M, lower compartment 1.4 × 10^-6 M): 9 ± 1 Fibroblasts per 20 OIF; Fibroblasts per 20 OIF (mean ± SEM) ([1]; checkerboard: upper compartment 1.4 × 10^-6 M, lower compartment 7.0 × 10^-6 M): 24 ± 2 Fibroblasts per 20 OIF; Fibroblasts per 20 OIF (mean ± SEM) ([1]; checkerboard: upper compartment 1.4 × 10^-6 M, lower compartment 7.0 × 10^-7 M): 10 ± 1 Fibroblasts per 20 OIF; Fibroblasts per 20 OIF (mean ± SEM) ([1]; checkerboard: upper compartment 7.0 × 10^-6 M, lower compartment 0): 7 ± 1 Fibroblasts per 20 OIF; Fibroblasts per 20 OIF (mean ± SEM) ([1]; checkerboard: upper compartment 7.0 × 10^-6 M, lower compartment 1.4 × 10^-6 M): 8 ± 1 Fibroblasts per 20 OIF; Fibroblasts per 20 OIF (mean ± SEM) ([1]; checkerboard: upper compartment 7.0 × 10^-6 M, lower compartment 7.0 × 10^-6 M): 11 ± 1 Fibroblasts per 20 OIF; Fibroblasts per 20 OIF (mean ± SEM) ([1]; checkerboard: upper compartment 7.0 × 10^-6 M, lower compartment 7.0 × 10^-7 M): 7 ± 1 Fibroblasts per 20 OIF; Fibroblasts per 20 OIF (mean ± SEM) ([1]; checkerboard: upper compartment 7.0 × 10^-7 M, lower compartment 0): 8 ± 1 Fibroblasts per 20 OIF; Fibroblasts per 20 OIF (mean ± SEM) ([1]; checkerboard: upper compartment 7.0 × 10^-7 M, lower compartment 1.4 × 10^-6 M): 24 ± 2 Fibroblasts per 20 OIF; Fibroblasts per 20 OIF (mean ± SEM) ([1]; checkerboard: upper compartment 7.0 × 10^-7 M, lower compartment 7.0 × 10^-6 M): 39 ± 4 Fibroblasts per 20 OIF; Fibroblasts per 20 OIF (mean ± SEM) ([1]; checkerboard: upper compartment 7.0 × 10^-7 M, lower compartment 7.0 × 10^-7 M): 10 ± 1 Fibroblasts per 20 OIF; fibroblast chemotaxis / migration (in words) ([1]; listed as VYYVGRKK): induced fibroblast chemotaxis at all of the concentration tested; Mean Monocytes per 20 OIF + SEM [4, 6]: 138 ± 8 Monocytes per 20 OIF; Mean Monocytes per 20 OIF + SEM [4, 7]: 50 ± 5 Monocytes per 20 OIF; monocyte chemotaxis / migration (in words) ([4]; listed as VYYVGRK): induced monocyte chemotaxis at all of the concentrations tested; synthesis of hyaluronic acid (in words) (fibroblasts [2]): does stimulate fibroblast chemotaxis and synthesis of collagen and hyaluronic acid
340-391: synthetic peptide corresponding to sequence 340-391 of TGF-β1; positive chemotactic control (VLALYNQHNPGASAAPCCVPQALEPLPIVYYVGRKPKVEQLSNMIVRSCKCS; printed: Val Leu Ala Leu Tyr Asn Gln His Asn Pro Gly Ala Ser Ala Ala Pro Cys Cys Val Pro Gln Ala Leu Glu Pro Leu Pro Ile Val Tyr Tyr Val Gly Arg Lys Pro Lys Val Glu Gln Leu Ser Asn Met Ile Val Arg Ser Cys Lys Cys Ser) [Peptide 340-391] | migrated in a dose dependent fashion | – | NE | – | – | migrated in a dose dependent fashion | migrated in a dose dependent fashion | – | –
PLPIVYYVGRKPKVE [Peptide 364-378, 15-mer peptide 364-378 of TGF-β1] | induced migration of fibroblasts, monocytes and neutrophils in a dose dependent fashion | No such inhibition was seen | NE | 122 ± 8 | 37 ± 5 | induced migration of fibroblasts, monocytes and neutrophils in a dose dependent fashion | induced migration of fibroblasts, monocytes and neutrophils in a dose dependent fashion | NE | –
